# Test results reported in US20190345138A1, “HETEROCYCLIC AMIDES AS KINASE INHIBITORS” (GlaxoSmithKline Intellectual Property Development Limited, priority 2016, published 2019).
# Several values for one entry are separate records, joined by “and”; a condition that tells them apart may be missing. Equal values may be shown once. Read-outs that look alike come from different tables or passages of the source.
# Columns and labels:
# [1] = tested on: human monocytic leukemia U937 cells; assay: necroptosis assay in U937 cells; format: cell-based; settings: viability by cellular ATP (Cell Titer-Glo); for IC50: Homo sapiens, U-937, U937 cells, read-out: pIC50, inhibited necrosis in U937 cells (converted)
# Procedure, shortened: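 Necroptosis was induced in human U937 or mouse L929 cells, and viability was quantified as cellular ATP with Cell Titer-Glo. Data are means±standard deviation.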
# [2] = tested on: mouse L929 fibrosarcoma cells; assay: necroptosis assay in L929 cells; format: cell-based; settings: viability by cellular ATP (Cell Titer-Glo), read-out: pIC50, inhibited necrosis in L929 cells (converted)
# Experimental: The efficacy of RIP1 inhibitors can be tested […] in vitro using a human monocytic leukemia U937 or mouse L929 fibrosarcoma cells in a necroptosis assay. As determined using the method described in S. He et al., Cell, 137(6):1100-1111 (2009) and International Patent Appln. No. PCT/IB2014/059004, now, International Patent Appln. Pub.
# Viability was measured by quantitating cellular levels of ATP using the Cell Titer-Glo kit. All data are means±standard deviation of the mean.
# [3] = molecular target: T1, RIP1 kinase (Homo sapiens, UniProt Q13546); assay: fluorescent polarization based binding assay; settings: mean of a minimum of 2 experiments
# T1 sequence (Q13546 1-375 limits assumed): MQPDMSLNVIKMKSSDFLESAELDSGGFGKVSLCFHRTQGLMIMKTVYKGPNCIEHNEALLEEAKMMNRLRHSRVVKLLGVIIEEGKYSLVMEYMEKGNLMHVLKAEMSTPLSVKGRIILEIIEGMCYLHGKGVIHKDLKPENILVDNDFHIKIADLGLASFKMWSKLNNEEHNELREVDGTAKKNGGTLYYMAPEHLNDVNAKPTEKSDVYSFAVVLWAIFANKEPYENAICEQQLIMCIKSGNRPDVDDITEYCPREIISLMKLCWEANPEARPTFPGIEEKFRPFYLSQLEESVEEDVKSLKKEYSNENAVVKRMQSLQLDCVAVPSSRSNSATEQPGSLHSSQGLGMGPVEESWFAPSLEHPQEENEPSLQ
# Excerpt: A fluorescent polarization based binding assay was used to assess the activity of the compounds of this invention, the details of which are disclosed in International Patent Appln. No. PCT/IB2014/059004, now, International Patent Appln. Pub.
structure (smiles),measurement,setting,value
"CC(=O)Nc1ccnc(N2CCC(C(=O)N3N=CC[C@H]3c3cc(F)ccc3F)CC2)n1 [Example 118, (S)—N-(2-(4-(5-(2,5-difluorophenyl)-4,5-dihydro-1H-pyrazole-1-carbonyl)piperidin-1-yl)pyrimidin-4-yl)acetamide]",IC50,[1],0.001 to 0.1 µM
same,IC50,[2]; L929 cells,0.001 to 0.1 µM
same,IC50,[3],0.001 to 0.0316 µM
"O=C(C1CCN(c2nccc(SCc3ccccc3)n2)CC1)N1N=CC[C@H]1c1ccccc1 [Example 1, (S)-(1-(4-(benzylthio)pyrimidin-2-yl)piperidin-4-yl)(5-phenyl-4,5-dihydro-1H-pyrazol-1-yl)methanone]",IC50,[1],0.001 to 0.1 µM
same,IC50,[2]; L929 cells,0.001 to 0.1 µM
"C#Cc1cc(N2CCC(C(=O)N3N=CC[C@H]3c3ccccc3)CC2)ncn1 [Example 156, (S)-(1-(6-ethynylpyrimidin-4-yl)piperidin-4-yl)(5-phenyl-4,5-dihydro-1H-pyrazol-1-yl)methanone]",IC50,[1],0.001 to 0.1 µM
same,IC50,[2]; L929 cells,0.001 to 0.1 µM
same,IC50,[3],0.001 to 0.0316 µM and 0.001 to 0.01 µM
"N#Cc1nccc(N2CCC(C(=O)N3N=CC[C@H]3c3cc(F)cc(F)c3)CC2)n1 [Example 89, (S)-4-(4-(5-(3,5-difluorophenyl)-4,5-dihydro-1H-pyrazole-1-carbonyl)piperidin-1-yl)pyrimidine-2-carbonitrile]",IC50,[1],0.001 to 0.1 µM
same,IC50,"[2]; L929, L929 cells",0.001 to 0.1 µM
"NC(=O)c1nc(N2CCC(C(=O)N3N=CC[C@H]3c3ccccc3)CC2)ncc1F [Example 162, (S)-5-fluoro-2-(4-(5-phenyl-4,5-dihydro-1H-pyrazole-1-carbonyl)piperidin-1-yl)pyrimidine-4-carboxamide]",IC50,[1],0.001 to 0.1 µM
same,IC50,[2]; L929 cells,0.001 to 0.1 µM
same,IC50,[3],0.001 to 0.0316 µM and 0.001 to 0.01 µM
"O=C(O)c1ncnc(N2CCC(C(=O)N3N=CC[C@H]3c3ccccc3)CC2)c1F [Example 159, (S)-5-fluoro-6-(4-(5-phenyl-4,5-dihydro-1H-pyrazole-1-carbonyl)piperidin-1-yl)pyrimidine-4-carboxylic acid]",IC50,[2]; L929 cells,~0.251 µM
same,IC50,[3],~0.0501 µM
"Cc1nnc(N2CCC(C(=O)N3N=CC[C@H]3c3cc(F)cc(F)c3)CC2)o1 [Example 77, (S)-(5-(3,5-difluorophenyl)-4,5-dihydro-1H-pyrazol-1-yl)(1-(5-methyl-1,3,4-oxadiazol-2-yl)piperidin-4-yl)methanone]","pIC50, inhibited necrosis in U937 cells",[1]; U937 cells,~7.2
same,IC50,"[2]; L929, L929 cells",~3.16 µM
"CC(=O)Nc1ccnc(N2CCC(C(=O)N3N=CC[C@H]3c3ccccc3)CC2)n1 [Example 36, (S)-N-(2-(4-(5-phenyl-4,5-dihydro-1H-pyrazole-1-carbonyl)piperidin-1-yl)pyrimidin-4-yl)acetamide]",IC50,[1],0.001 to 0.1 µM
same,IC50,[2]; L929 cells,0.001 to 0.1 µM
same,IC50,[3],0.001 to 0.0316 µM and 0.001 to 0.01 µM
"NC(=O)c1ccnc(N2CCC(C(=O)N3N=CC[C@H]3c3cc(F)ccc3F)CC2)n1 [Example 102, (S)-2-(4-(5-(2,5-difluorophenyl)-4,5-dihydro-1H-pyrazole-1-carbonyl)piperidin-1-yl)pyrimidine-4-carboxamide]",IC50,[1],0.001 to 0.1 µM
same,IC50,[2]; L929 cells,0.001 to 0.1 µM
same,IC50,[3],0.001 to 0.0316 µM and 0.001 to 0.01 µM
"Nc1nc(N2CCC(C(=O)N3N=CC[C@H]3c3ccccc3)CC2)ncc1F [Example 27, (S)-(1-(4-amino-5-fluoropyrimidin-2-yl)piperidin-4-yl)(5-phenyl-4,5-dihydro-1H-pyrazol-1-yl)methanone]",IC50,[1],0.001 to 0.1 µM
same,IC50,[2]; L929 cells,0.001 to 0.1 µM
same,IC50,[3],0.001 to 0.0316 µM and 0.001 to 0.01 µM
"O=C(C1CCN(c2ncc3cn[nH]c3n2)CC1)N1N=CC[C@H]1c1ccccc1 [Example 52, (S)-(1-(1H-pyrazolo[3,4-d]pyrimidin-6-yl)piperidin-4-yl)(5-phenyl-4,5-dihydro-1H-pyrazol-1-yl)methanone]",IC50,[1],0.001 to 0.1 µM
same,IC50,[2]; L929 cells,0.001 to 0.1 µM
same,IC50,[3],0.001 to 0.0316 µM and 0.001 to 0.01 µM
"NC(=O)c1ccnc(N2CCC(C(=O)N3N=CC[C@H]3c3cc(F)cc(F)c3)CC2)n1 [Example 83, (S)-2-(4-(5-(3,5-difluorophenyl)-4,5-dihydro-1H-pyrazole-1-carbonyl)piperidin-1-yl)pyrimidine-4-carboxamide]",IC50,[1],0.001 to 0.1 µM
same,IC50,[2]; L929 cells,0.001 to 0.1 µM
same,IC50,[3],0.001 to 0.0316 µM and 0.001 to 0.01 µM
"N#Cc1cc(N2CCC(C(=O)N3N=CC[C@H]3c3ccccc3)CC2)ncn1 [Example 14, (S)-6-(4-(5-phenyl-4,5-dihydro-1H-pyrazole-1-carbonyl)piperidin-1-yl)pyrimidine-4-carbonitrile]",IC50,[1],0.001 to 0.1 µM
same,IC50,[2]; L929 cells,0.001 to 0.1 µM
same,IC50,[3],0.001 to 0.0316 µM and 0.001 to 0.01 µM
"NC(=O)c1ccnc(N2CCC(C(=O)N3N=CC[C@H]3c3ccccc3)CC2)n1 [Example 28, (S)-2-(4-(5-phenyl-4,5-dihydro-1H-pyrazole-1-carbonyl)piperidin-1-yl)pyrimidine-4-carboxamide]",IC50,[1],0.001 to 0.1 µM
same,IC50,[2]; L929 cells,0.001 to 0.1 µM
same,IC50,[3],0.001 to 0.0316 µM and 0.001 to 0.01 µM
"Nc1nc(N2CCC(C(=O)N3N=CC[C@H]3c3cc(F)cc(F)c3)CC2)ncc1F [Example 81, (S)-(1-(4-amino-5-fluoropyrimidin-2-yl)piperidin-4-yl)(5-(3,5-difluorophenyl)-4,5-dihydro-1H-pyrazol-1-yl)methanone]",IC50,[1],0.001 to 0.1 µM
same,IC50,[2]; L929 cells,0.001 to 0.1 µM
same,IC50,[3],0.001 to 0.0316 µM and 0.001 to 0.01 µM
"N#Cc1cc(N2CCC(C(=O)N3N=CC[C@H]3c3cc(F)ccc3F)CC2)ncn1 [Example 104, (S)-6-(4-(5-(2,5-difluorophenyl)-4,5-dihydro-1H-pyrazole-1-carbonyl)piperidin-1-yl)pyrimidine-4-carbonitrile]",IC50,[1],0.001 to 0.1 µM
same,IC50,[2]; L929 cells,0.001 to 0.1 µM
same,IC50,[3],0.001 to 0.0316 µM and 0.001 to 0.01 µM
"O=C(C1CCN(c2ncc3cn[nH]c3n2)CC1)N1N=CC[C@H]1c1cc(F)cc(F)c1 [Example 86, (S)-(1-(1H-pyrazolo[3,4-d]pyrimidin-6-yl)piperidin-4-yl)(5-(3,5-difluorophenyl)-4,5-dihydro-1H-pyrazol-1-yl)methanone]",IC50,[1],0.001 to 0.1 µM
same,IC50,[2]; L929 cells,0.001 to 0.1 µM
"COc1cc(N2CCC(C(=O)N3N=CC[C@H]3c3ccccc3)CC2)nc(N)n1 [Example 34, (S)-(1-(2-amino-6-methoxypyrimidin-4-yl)piperidin-4-yl)(5-phenyl-4,5-dihydro-1H-pyrazol-1-yl)methanone]",IC50,[1],0.001 to 0.1 µM
same,IC50,[3],0.001 to 0.0316 µM
"Nc1nccc(N2CCC(C(=O)N3N=CC[C@H]3c3ccccc3)CC2)n1 [Example 11, (S)-(1-(2-aminopyrimidin-4-yl)piperidin-4-yl)(5-phenyl-4,5-dihydro-1H-pyrazol-1-yl)methanone]",IC50,[1],0.001 to 0.1 µM
same,IC50,[3],0.001 to 0.0316 µM
"O=C(C1CCN(c2ccc3nccn3n2)CC1)N1N=CC[C@H]1c1cc(F)cc(F)c1 [Example 87, (S)-(5-(3,5-difluorophenyl)-4,5-dihydro-1H-pyrazol-1-yl)(1-(imidazo[1,2-b]pyridazin-6-yl)piperidin-4-yl)methanone]",IC50,[1],0.001 to 0.1 µM
same,IC50,[3],0.001 to 0.0316 µM and 0.001 to 0.01 µM
"O=C(C1CCN(c2ncc3[nH]cnc3n2)CC1)N1N=CC[C@H]1c1cc(F)cc(F)c1 [Example 139, (S)-(1-(7H-purin-2-yl)piperidin-4-yl)(5-(3,5-difluorophenyl)-4,5-dihydro-1H-pyrazol-1-yl)methanone]",IC50,[1],0.001 to 0.1 µM
same,IC50,[3],0.001 to 0.0316 µM
"O=C(C1CCN(c2nnc(-c3ccccc3)o2)CC1)N1N=CC[C@H]1c1ccccc1 [Example 57, (S)-(1-(5-phenyl-1,3,4-oxadiazol-2-yl)piperidin-4-yl)(5-phenyl-4,5-dihydro-1H-pyrazol-1-yl)methanone]",IC50,[1],0.001 to 0.1 µM
same,IC50,[3],0.001 to 0.0316 µM
"NC(=O)c1cnc(N2CCC(C(=O)N3N=CC[C@H]3c3cc(F)cc(F)c3)CC2)nc1 [Example 96, (S)-2-(4-(5-(3,5-difluorophenyl)-4,5-dihydro-1H-pyrazole-1-carbonyl)piperidin-1-yl)pyrimidine-5-carboxamide]",IC50,[1],0.001 to 0.1 µM
same,IC50,[3],0.001 to 0.0316 µM
"NC(=O)c1nc(N2CCC(C(=O)N3N=CC[C@H]3c3cncc(F)c3)CC2)ncc1Cl [Example 124, (S)-5-chloro-2-(4-(5-(5-fluoropyridin-3-yl)-4,5-dihydro-1H-pyrazole-1-carbonyl)piperidin-1-yl)pyrimidine-4-carboxamide]",IC50,[1],0.001 to 0.1 µM
same,IC50,[3],0.001 to 0.0316 µM
